# Assay results published in ChEMBL document CHEMBL5113524, “Substrates and Inhibitors of the Organic Cation Transporter 3 and Comparison with OCT1 and OCT2” (J Med Chem, 2022).
# Tests used:
# OCT3 (SLC22A3) [1] = target: T1, OCT3 (SLC22A3) (Homo sapiens, UniProt O75751); assay: Substrate activity at human OCT3 overexpressed in HEK293 cells assessed as uptake ratio incubated for 2 mins by LC-MS/MS analysis; type: ADME, cell-based; conditions: HEK293 cells overexpressing OCT3
# T1 sequence (O75751 whole entry): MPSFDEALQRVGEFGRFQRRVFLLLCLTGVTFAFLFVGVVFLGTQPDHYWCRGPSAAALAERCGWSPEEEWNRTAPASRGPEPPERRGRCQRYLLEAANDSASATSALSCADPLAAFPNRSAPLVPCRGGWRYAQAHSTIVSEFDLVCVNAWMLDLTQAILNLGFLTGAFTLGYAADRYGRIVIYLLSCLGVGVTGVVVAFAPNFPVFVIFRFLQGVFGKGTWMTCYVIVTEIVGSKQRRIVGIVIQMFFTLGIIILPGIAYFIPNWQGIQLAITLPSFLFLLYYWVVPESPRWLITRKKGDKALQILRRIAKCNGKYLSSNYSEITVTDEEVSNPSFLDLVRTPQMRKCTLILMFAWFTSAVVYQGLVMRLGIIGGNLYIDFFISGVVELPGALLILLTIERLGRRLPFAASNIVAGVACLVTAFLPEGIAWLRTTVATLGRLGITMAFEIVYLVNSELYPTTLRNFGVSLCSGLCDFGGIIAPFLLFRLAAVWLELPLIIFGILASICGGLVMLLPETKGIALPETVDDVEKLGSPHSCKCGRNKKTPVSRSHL
# OCT3 (SLC22A3) [2] = target: T1, OCT3 (SLC22A3); assay: Inhibition of human OCT3 mediated ASP+ uptake overexpressed in HEK293 cells at 20 uM incubated for 5 mins by HPLC-MS/MS analysis relative to control; type: cell-based; conditions: HEK293 cells overexpressing OCT3, probe ASP+
# OCT3 (SLC22A3) [3] = target: T1, OCT3 (SLC22A3); assay: Inhibition of human OCT3 mediated (S,S)-Ethambutol uptake overexpressed in HEK293 cells at 20 uM incubated for 5 mins by HPLC-MS/MS analysis relative to control; type: cell-based; conditions: HEK293 cells overexpressing OCT3, probe (S,S)-Ethambutol
# OCT3 (SLC22A3) [4] = target: T1, OCT3 (SLC22A3); assay: Inhibition of human OCT3 mediated Famotidine uptake overexpressed in HEK293 cells at 20 uM incubated for 5 mins by HPLC-MS/MS analysis relative to control; type: cell-based; conditions: HEK293 cells overexpressing OCT3, probe Famotidine
# OCT3 (SLC22A3) [5] = target: T1, OCT3 (SLC22A3); assay: Inhibition of human OCT3 mediated methylscopolamine uptake overexpressed in HEK293 cells at 20 uM incubated for 5 mins by HPLC-MS/MS analysis relative to control; type: cell-based; conditions: HEK293 cells overexpressing OCT3, probe methylscopolamine
# OCT3 (SLC22A3) [6] = target: T1, OCT3 (SLC22A3); assay: Inhibition of human OCT3 mediated N-Ethyllidocaine uptake overexpressed in HEK293 cells at 20 uM incubated for 5 mins by HPLC-MS/MS analysis relative to control; type: cell-based; conditions: HEK293 cells overexpressing OCT3, probe N-Ethyllidocaine
# [7] = target: T2, Solute carrier family 22 member 3 (Homo sapiens, UniProt O75751); assay: (§1) Inhibition of human OCT3 overexpressed in HEK293 cells assessed as intracellularly accumulation of ASP+ at 20 uM incubated for 5 mins by HPLC-MS/MS analysis relative to control; type: cell-based; conditions: hek293, 5 min, 20 µM
# T2 sequence (O75751 whole entry): T1 sequence (O75751 whole entry)
# OCT3 (SLC22A3) [8] = target: T1, OCT3 (SLC22A3); assay: Inhibition of OCT3 (unknown origin) overexpressed in HEK293 cells assessed as intracellular accumulation of ASP+ incubated for 2 mins by Analyst AD plate reader method relative to control; type: cell-based; set-up: concentration or dose not given beside the values; conditions: HEK293 cells overexpressing OCT3, probe ASP+
# OCT3 (SLC22A3) [9] = target: T1, OCT3 (SLC22A3); assay: as §1; type: cell-based; conditions: HEK293 cells overexpressing OCT3, probe ASP+
# [10] = target: Solute carrier family 22 member 2 (Homo sapiens) (UniProt O15244); assay: Inhibition of OCT2 mediated (unknown origin) assessed as intracellular accumulation of ASP+ relative to control
# Solute carrier family 22 member 2 (Homo sapiens), sequence (O15244 whole entry, looked up): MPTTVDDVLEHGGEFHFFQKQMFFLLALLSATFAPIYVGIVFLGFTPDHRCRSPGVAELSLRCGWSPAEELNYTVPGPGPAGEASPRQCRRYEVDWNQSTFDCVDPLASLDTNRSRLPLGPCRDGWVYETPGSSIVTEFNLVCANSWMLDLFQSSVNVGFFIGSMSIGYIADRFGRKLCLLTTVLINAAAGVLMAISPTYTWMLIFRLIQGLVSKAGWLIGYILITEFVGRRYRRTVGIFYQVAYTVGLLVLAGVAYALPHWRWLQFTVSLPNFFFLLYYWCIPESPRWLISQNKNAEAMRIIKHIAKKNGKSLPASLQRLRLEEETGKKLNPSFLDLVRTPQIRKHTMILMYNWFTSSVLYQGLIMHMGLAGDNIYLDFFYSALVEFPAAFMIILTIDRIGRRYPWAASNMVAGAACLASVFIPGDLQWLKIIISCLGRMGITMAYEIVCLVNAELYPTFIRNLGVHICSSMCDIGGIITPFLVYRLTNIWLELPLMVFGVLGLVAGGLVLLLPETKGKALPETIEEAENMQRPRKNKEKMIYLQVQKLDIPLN
# OCT2 = OCT2 (Homo sapiens, UniProt O15244); assay: Substrate activity at human OCT2 overexpressed in HEK293 cells assessed as uptake ratio incubated for 2 mins by LC-MS/MS analysis; type: ADME, cell-based; conditions: HEK293 cells overexpressing OCT2
# OCT2, sequence (O15244 whole entry, looked up): as above
# OCT1 = OCT1 (Homo sapiens, UniProt O15245); assay: Substrate activity at OCT1 (unknown origin) assessed as uptake ratio; type: ADME, cell-based; conditions: HEK293 cells
# OCT1, sequence (O15245 whole entry, looked up): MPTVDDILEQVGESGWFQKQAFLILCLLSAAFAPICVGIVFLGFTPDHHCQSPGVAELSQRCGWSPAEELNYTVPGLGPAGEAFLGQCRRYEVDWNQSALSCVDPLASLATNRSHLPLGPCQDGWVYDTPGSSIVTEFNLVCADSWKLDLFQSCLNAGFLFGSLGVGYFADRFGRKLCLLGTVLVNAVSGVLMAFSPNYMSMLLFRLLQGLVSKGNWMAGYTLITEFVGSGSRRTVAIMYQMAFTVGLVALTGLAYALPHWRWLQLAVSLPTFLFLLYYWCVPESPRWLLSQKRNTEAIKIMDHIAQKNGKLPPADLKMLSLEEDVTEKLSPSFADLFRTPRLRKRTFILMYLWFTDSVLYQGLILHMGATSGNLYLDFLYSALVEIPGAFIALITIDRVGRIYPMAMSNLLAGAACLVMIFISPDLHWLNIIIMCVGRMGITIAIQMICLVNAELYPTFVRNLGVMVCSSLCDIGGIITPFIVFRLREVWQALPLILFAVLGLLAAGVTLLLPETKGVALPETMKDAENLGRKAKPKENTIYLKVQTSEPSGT
smiles,measurement,setting,value
CC[N+](CC)(CC)CC(=O)Nc1c(C)cccc1C,uptake ratio at 2 min,OCT3 (SLC22A3) [1],50
same,"inhibition at 5 min, 20 µM",OCT3 (SLC22A3) [2],16%
same,"inhibition at 5 min, 20 µM",OCT3 (SLC22A3) [3],44%
same,"inhibition at 5 min, 20 µM",OCT3 (SLC22A3) [4],52%
same,"inhibition at 5 min, 20 µM",OCT3 (SLC22A3) [5],15%
CC[N+](CC)(CC)Cc1ccccc1,uptake ratio at 2 min,OCT3 (SLC22A3) [1],62.5
same,"inhibition at 5 min, 20 µM",OCT3 (SLC22A3) [2],5%
same,"inhibition at 5 min, 20 µM",OCT3 (SLC22A3) [5],49%
CN(C)c1ccc(/C=C/c2cc[n+](C)cc2)cc1,"inhibition at 5 min, 20 µM",OCT3 (SLC22A3) [3],51%
same,"inhibition at 5 min, 20 µM",OCT3 (SLC22A3) [4],63%
same,"inhibition at 5 min, 20 µM",OCT3 (SLC22A3) [6],70%
same,"inhibition at 5 min, 20 µM",OCT3 (SLC22A3) [5],58%
N=C(N)N1Cc2ccccc2C(O)C1 (stereo unspecified),uptake ratio at 2 min,OCT3 (SLC22A3) [1],38
C[N+]1(CCC(C(N)=O)(c2ccccc2)c2ccccc2)CCCCC1,inhibition (INH),[7],Active
C[N+]1(C)[C@@H]2C[C@H](OC(=O)[C@H](CO)c3ccccc3)C[C@H]1[C@@H]1O[C@@H]12,"inhibition at 5 min, 20 µM",OCT3 (SLC22A3) [2],0%
same,"inhibition at 5 min, 20 µM",OCT3 (SLC22A3) [3],27%
same,"inhibition at 5 min, 20 µM",OCT3 (SLC22A3) [4],40%
same,"inhibition at 5 min, 20 µM",OCT3 (SLC22A3) [6],21%
Cc1cc(N)c2ccccc2[n+]1CCCCCCCCCC[n+]1c(C)cc(N)c2ccccc21,inhibition at 2 min,OCT3 (SLC22A3) [8],66.6%
C[N+]1(C)[C@@H]2C[C@H](OC(=O)C(O)(c3cccs3)c3cccs3)C[C@H]1[C@@H]1O[C@@H]12,uptake ratio at 2 min,OCT3 (SLC22A3) [1],50
CNCC/C=C1\c2ccccc2CC(O)c2ccccc21 (stereo unspecified),"inhibition at 5 min, 20 µM",OCT3 (SLC22A3) [9],86.7%
CN(C)CCC=C1c2ccccc2CC(O)c2ccccc21 (stereo unspecified),"inhibition at 5 min, 20 µM",OCT3 (SLC22A3) [9],79.3%
N=C(NCCCCCCNC(=N)NC(=N)Nc1ccc(Cl)cc1)NC(=N)Nc1ccc(Cl)cc1,inhibition,[10],105%
COc1ccc2[nH]cc(CCN)c2c1 [5-METHOXYTRYPTAMINE],uptake ratio at 2 min,OCT3 (SLC22A3) [1],2.2
same,uptake ratio at 2 min,OCT2,7.1
same,uptake ratio,OCT1,3.8
CCCCC(CC)CNC(=N)NC(=N)NCCCCCCNC(=N)NC(=N)NCC(CC)CCCC (stereo unspecified) [ALEXIDINE],"inhibition at 5 min, 20 µM",OCT3 (SLC22A3) [9],103%
same,inhibition at 2 min,OCT3 (SLC22A3) [8],98.1%
CN(C)CCC=C1c2ccccc2CCc2ccccc21 [AMITRIPTYLINE],"inhibition at 5 min, 20 µM",OCT3 (SLC22A3) [9],80%
[H]/N=C(\N/C(=N/[H])NCCCCCCNC(=N)NC(=N)Nc1ccc(Cl)cc1)Nc1ccc(Cl)cc1 [CHLORHEXIDINE],"inhibition at 5 min, 20 µM",OCT3 (SLC22A3) [9],98.4%
same,inhibition at 2 min,OCT3 (SLC22A3) [8],98.4%
CC(C)(C)NCC(O)c1ccc(O)c(O)c1 (stereo unspecified) [COLTEROL],uptake ratio at 2 min,OCT3 (SLC22A3) [1],53
C[C@@H](Oc1cc(-c2cnn(C3CCNCC3)c2)cnc1N)c1c(Cl)ccc(F)c1Cl [CRIZOTINIB],"inhibition at 5 min, 20 µM",OCT3 (SLC22A3) [9],90.4%
C[N+]1(C)CCN(c2ccccc2)CC1 [DIMETHYLPHENYLPIPERAZINIUM],uptake ratio at 2 min,OCT3 (SLC22A3) [1],46
CC[C@@H](CO)NCCN[C@@H](CC)CO [ETHAMBUTOL],"inhibition at 5 min, 20 µM",OCT3 (SLC22A3) [2],7%
same,"inhibition at 5 min, 20 µM",OCT3 (SLC22A3) [4],-1%
same,"inhibition at 5 min, 20 µM",OCT3 (SLC22A3) [6],-7%
same,"inhibition at 5 min, 20 µM",OCT3 (SLC22A3) [5],-13%
CN[C@@H]1CCc2[nH]c3ccc(C(N)=O)cc3c2C1 [FROVATRIPTAN],uptake ratio at 2 min,OCT3 (SLC22A3) [1],7.7
same,uptake ratio at 2 min,OCT2,10.8
same,uptake ratio,OCT1,30.3
CN(C)c1ccc(C(=C2C=CC(=[N+](C)C)C=C2)c2ccc(N(C)C)cc2)cc1 [GENTIAN VIOLET],"inhibition at 5 min, 20 µM",OCT3 (SLC22A3) [9],81.4%
same,inhibition at 2 min,OCT3 (SLC22A3) [8],107%
same,inhibition,[10],116%
CC(C)[N+]1(C)[C@@H]2CC[C@H]1C[C@@H](OC(=O)C(CO)c1ccccc1)C2 (stereo partly specified) [IPRATROPIUM],"inhibition at 5 min, 20 µM",OCT3 (SLC22A3) [9],79.1%
same,inhibition at 2 min,OCT3 (SLC22A3) [8],47.8%
CCC(NC(C)C)C(O)c1ccc(O)c(O)c1 (stereo unspecified) [ISOETHARINE],uptake ratio at 2 min,OCT3 (SLC22A3) [1],23.3
C[N+]1(CC2CC2)CC[C@]23c4c5ccc(O)c4O[C@H]2C(=O)CC[C@@]3(O)[C@H]1C5 (stereo partly specified) [METHYLNALTREXONE],uptake ratio at 2 min,OCT3 (SLC22A3) [1],102
CNCCC=C1c2ccccc2CCc2ccccc21 [NORTRIPTYLINE],"inhibition at 5 min, 20 µM",OCT3 (SLC22A3) [9],80%
Cc1nc2n(c(=O)c1CCN1CCC(c3noc4cc(F)ccc34)CC1)CCCC2O (stereo unspecified) [PALIPERIDONE],"inhibition at 5 min, 20 µM",OCT3 (SLC22A3) [9],87.7%
[H]/N=C(/N)N/C(=N/[H])NCCc1ccccc1 [PHENFORMIN],uptake ratio at 2 min,OCT3 (SLC22A3) [1],32.2
CN(C)CCc1c[nH]c2ccc(Cn3cncn3)cc12 [RIZATRIPTAN],uptake ratio at 2 min,OCT3 (SLC22A3) [1],2.4
same,uptake ratio at 2 min,OCT2,4.1
same,uptake ratio,OCT1,4.3
CC(=O)S[C@@H]1CC2=CC(=O)CC[C@]2(C)[C@H]2CC[C@@]3(C)[C@@H](CC[C@@]34CCC(=O)O4)[C@H]12 [SPIRONOLACTONE],"inhibition at 5 min, 20 µM",OCT3 (SLC22A3) [9],93.9%
same,inhibition,[10],84.2%
Cc1ccc(O)c([C@H](CCN(C(C)C)C(C)C)c2ccccc2)c1 [TOLTERODINE],"inhibition at 5 min, 20 µM",OCT3 (SLC22A3) [9],96.1%
O=C(O[C@H]1C[C@H]2CC[C@@H](C1)[N+]21CCCC1)C(O)(c1ccccc1)c1ccccc1 [TROSPIUM],inhibition (INH),[7],Active
CN(C)CCc1c[nH]c2ccc(C[C@H]3COC(=O)N3)cc12 [ZOLMITRIPTAN],uptake ratio at 2 min,OCT3 (SLC22A3) [1],22
same,uptake ratio at 2 min,OCT2,1.2
same,uptake ratio,OCT1,9.3
